One data set has as its system PGD2. Particulars: intranasal, allergic rhinitis, phase I/II; cited from earlier work.
For data set [1] the following is noted: allergic rhinitis, phase II; cited from earlier work.
For data set [2], the target named is recombinant human GST-Syk (Homo sapiens (Human), UniProt P43405). Briefly: Homogeneous Time-Resolved Fluorescence (HTRF) Assay for the Recombinant Human Syk Enzyme. It counts as biochemical. To be noted: recombinant human GST-Syk 5 pM, ATP 25 μM. The method, then:
Homogeneous Time-Resolved Fluorescence (HTRF) Assay for the Recombinant Human Syk Enzyme:
A recombinant GST-hSyk fusion protein was used to measure potency of compounds to inhibit human Syk activity. The recombinant human GST-Syk (Carna Biosciences #08-176) (5 pM final concentration) was incubated with various concentrations of the inhibitor diluted in DMSO (0.1% final concentration) for 10 minutes at room temperature in 15 mM Tris-HCl (pH 7.5), 0.01% tween 20, 2 mM DTT in 384 well plate format. To initiate the reaction the biotinylated substrate peptide (250 nM final concentration) that contains the phosphorylation site for Syk was added with magnesium (5 mM final concentration) and ATP (25 μM final concentration). Final volume of the reaction was 10 μL. Phosphorylation of the peptide was allowed to proceed for 45′ at room temperature. To quench the reaction and detect the phosphorylated product, 2 nM of a Europium-anti-phosphotyrosine antibody (Perkin Elmer #AD0161) and 70 nM SA-APC (Perkin-Elmer #CR130-100) were added together in 15 mM Tris pH 7.5, 40 mM EDTA, 0.01% Tween 20. Final volume of the quenching solution was 10 μL. The resulting HTRF signal was measured after 30 minutes on a EnVision (Perkin-Elmer) reader using a time-resolved fluorescence protocol. […] IC50 values are also provided for the following representative compounds: […]
For orientation: TR-FRET usually uses a lanthanide donor and a delayed reading to cut background.

Where [3] appears, read: 10-dose titration, read-out: rhSyk.
[4] abbreviates: read-out: rhSyk Activity (IC50).

Where a name gives a salt, the structure may show the parent alone. Read-outs that look alike come from different tables or passages of the source.

In the case of `Oc1cccc(Nc2ncc(F)c(Nc3cccc(O)c3)n2)c1` [Example R112], in the data set on PGD2, the “decrease in PGD2” value is given as “statistically significant decrease” and the “safety across a range of indicators” value is “safe”. The efficacy versus placebo result in data set [1] is “lack of efficacy”.

For the compound `Cc1cc(Nc2nccc(C(F)F)n2)cc(-c2cnc(C(C)(O)[C@H]3CC[C@H](C(=O)O)CC3)s2)c1` (single isomer, unassigned) [Example 2-77, trans-4-{(1R or S)-[5-(3-{[4-(difluoromethyl)pyrimidin-2-yl]amino}-5-methylphenyl)-1,3-thiazol-2-yl]-1-hydroxyethyl}cyclohexanecarboxylic acid], the IC50 is below 0.0005 µM in data set [2] (setting [3]) and at most 0.1 µM in data set [2] (setting [4]).

With `Cc1cc(Nc2nccc(C)n2)cc(-c2cnc(C[C@H]3CC[C@@H](C(=O)O)CC3)s2)c1` (single isomer, unassigned) [Example 13 (cis, faster eluting isomer), cis-4-[(5-{3-methyl-5-[(4-methylpyrimidin-2-yl)amino]phenyl}-1,3-thiazol-2-yl)methyl]cyclohexanecarboxylic acid], the IC50 in data set [2] (setting [4]) was at most 0.1 µM. Consider `Cc1cc(Nc2nccc(C)n2)cc(-c2cnc(C(C)(O)C3CCC(NOC(=O)Cc4ccccc4)CC3)s2)c1` (stereo not shown) [Example 2-57], for which the results for the IC50 in data set [2] (setting [3]) and in data set [2] (setting [4]) were 0.123 µM and 0.1 to 1 µM, respectively. With `Cc1ccnc(Nc2cc(C)c(Br)c(-c3cnc([C@](C)(O)[C@H]4CC[C@H](C(=O)O)CC4)s3)c2)n1` (single isomer, unassigned) [Example 8, trans-4-[(1R or 1S)-1-(5-{2-bromo-3-methyl-5-[(4-methylpyrimidin-2-yl)amino]phenyl}-1,3-thiazol-2-yl)-1-hydroxyethyl]cyclohexanecarboxylic acid], in data set [2] (setting [4]), the IC50 was at most 0.1 µM. `Cc1cc(Nc2nccc(C(F)(F)F)n2)cc(-c2cnc(C(C)(O)C3CCC(C(=O)O)C3)s2)c1` (stereo not shown) [Example 3-2]: the IC50 is 0.002 µM in data set [2] (setting [3]) and at most 0.1 µM in data set [2] (setting [4]). Turning to `CCCCOC(=O)[C@H]1CC[C@H](C(C)(O)c2ncc(-c3cc(C)cc(Nc4nccc(C(F)F)n4)c3)s2)CC1` (single isomer, unassigned), the IC50 in data set [2] (setting [4]) is 0.1 to 1 µM. For the compound `Cc1cc(Nc2nccc(C)n2)cc(-c2cnc(CC3(O)CCC(C(=O)OC(C)(C)C)CC3)s2)c1` (single isomer, unassigned) [Example 5, Step 3 (trans isomer), tert-butyl trans-4-hydroxy-4-[(5-{3-methyl-5-[(4-methylpyrimidin-2-yl)amino]phenyl}-1,3-thiazol-2-yl)methyl]cyclohexanecarboxylate], the IC50 in data set [2] (setting [3]) was 0.318 µM; in data set [2] (setting [4]), 0.1 to 1 µM. As to `Cc1cc(Nc2nccc(C)n2)cc(-c2cnc(C[C@]3(O)CC[C@H](C(=O)O)CC3)s2)c1` [5 (trans isomer), trans-4-hydroxy-4-[(5-{3-methyl-5-[(4-methylpyrimidin-2-yl)amino]phenyl}-1,3-thiazol-2-yl)methyl]cyclohexanecarboxylic acid], the IC50 in data set [2] (setting [4]) is at most 0.1 µM. On the same count and under the same terms, to `Cc1cc(Nc2nccc(C(F)(F)F)n2)cc(-c2cnc(C(=O)C3CCC(=O)CC3(C)C)s2)c1` (racemic) [Example 11, N-(3-{2-[(2,2-dimethyl-4-oxocyclohexyl)carbonyl]-1,3-thiazol-5-yl}-5-methylphenyl)-4-(trifluoromethyl)pyrimidin-2-aminium trifluoroacetate] belongs 0.1 to 1 µM; to `Cc1cc(Nc2nccc(C(F)(F)F)n2)cc(-c2cnc(C(O)C3CCC(O)CC3(C)C)s2)c1` (stereo not shown) [Example 12, 4-{hydroxy[5-(3-methyl-5-{[4-(trifluoromethyl)pyrimidin-2-yl]amino}phenyl)-1,3-thiazol-2-yl]methyl}-3,3-dimethylcyclohexanol], at most 0.1 µM. With `COC(C)(c1ncc(-c2cc(C)cc(Nc3nccc(C(F)(F)F)n3)c2)s1)[C@H]1CC[C@H](C(=O)O)CC1` (stereo partly shown) [Example 2-110], the IC50 in data set [2] (setting [3]) is 0.001 µM; in data set [2] (setting [4]), at most 0.1 µM. Consider `Cc1cc(Nc2nccc(C(F)(F)F)n2)cc(-c2cnc(C(C)(O)[C@H]3CC[C@H](c4nn[nH]n4)CC3)s2)c1` (single isomer, unassigned) [Example 6 (slower eluting enantiomer), 2-{[3-(2-{1-hydroxy-1-[trans-4-(2H-tetrazol-5-yl)cyclohexyl]ethyl}-1,3-thiazol-5-yl)-5-methylphenyl]amino}-4-(trifluoromethyl)pyrimidin-1-ium trifluoroacetate], for which the IC50 in data set [2] (setting [4]) was at most 0.1 µM. For the compound `Cc1cc(Nc2nccc(C(F)(F)F)n2)cc(-c2cnc(C(O)(CF)[C@H]3CC[C@H](C(=O)O)CC3)s2)c1` (stereo partly drawn) [Example 9, trans-4-{2-fluoro-1-hydroxy-1-[5-(3-methyl-5-{[4-(trifluoromethyl)pyrimidin-2-yl]amino}phenyl)-1,3-thiazol-2-yl]ethyl}cyclohexanecarboxylic acid], in data set [2] (setting [4]), the IC50 is at most 0.1 µM. With `Cc1cc(Nc2nccc(C(F)(F)F)n2)cc(-c2cnc(C(C)(O)C3CCC(C)(O)CC3)s2)c1` (stereo not shown) [Example 23, 4-{1-hydroxy-1-[5-(3-methyl-5-{[4-(trifluoromethyl)pyrimidin-2-yl]amino}phenyl)-1,3-thiazol-2-yl]ethyl}-1-methylcyclohexanol], in data set [2] (setting [4]), the IC50 is at most 0.1 µM. Still for that read-out and setting: to `CCCCOC(=O)[C@H]1CC[C@H](C(C)(O)c2ncc(-c3cc(C)cc(Nc4nccc(C(F)(F)F)n4)c3)s2)CC1` (relative stereo) [Example 1, Step 1, butyl trans-4-{1-hydroxy-1-[5-(3-methyl-5-{[4-(trifluoromethyl)pyrimidin-2-yl]amino}-phenyl)-1,3-thiazol-2-yl]ethyl}cyclohexanecarboxylate] belongs at most 0.1 µM; to `Cc1cc(Nc2nccc(C(F)(F)F)n2)cc(-c2cnc(C(C)(O)C3CCC(C)(C(=O)O)CC3)s2)c1` (stereo not shown) [Example 3-7], at most 0.1 µM.

Turning to `Cc1cc(Nc2nccc(C(F)(F)F)n2)cc(-c2cnc(C(=O)C3CCC4(CC3)OCCO4)s2)c1` [Example 1-20, 1,4-dioxaspiro[4.5]dec-8-yl[5-(3-methyl-5-{[4-(trifluoromethyl)pyrimidin-2-yl]amino}phenyl)-1,3-thiazol-2-yl]methanone], the IC50 in data set [2] (setting [4]) fell in the range of 0.1 to 1 µM. On the same count and under the same terms, to `Cc1cc(Nc2nccc(C(F)(F)F)n2)cc(-c2cnc([C@@](O)(CF)[C@H]3CC[C@H](C(=O)O)CC3)s2)c1` [Example 10] belongs at most 0.1 µM. `Cc1cc(Nc2nccc(C(F)(F)F)n2)cc(-c2cnc(C(N)[C@H]3CC[C@H](C(=O)O)CC3)s2)c1` (stereo partly shown) [Example 2-112]: the IC50 in data set [2] (setting [3]) was 0.003 µM; in data set [2] (setting [4]), at most 0.1 µM. Regarding `Cc1cc(Nc2nccc(C(F)(F)F)n2)cc(-c2cnc(C(C)(O)[C@H]3CC[C@H](c4nn[nH]n4)CC3)s2)c1` (single isomer, unassigned) [Example 6 (faster eluting enantiomer), 2-{[3-(2-{1-hydroxy-1-[trans-4-(2H-tetrazol-5-yl)cyclohexyl]ethyl}-1,3-thiazol-5-yl)-5-methylphenyl]amino}-4-(trifluoromethyl)pyrimidin-1-ium trifluoroacetate], the IC50 in data set [2] (setting [4]) is at most 0.1 µM.

On to `Cc1cc(Nc2nccc(C(F)(F)F)n2)cc(-c2cnc(C(C)(O)C3CCC(C)(C(=O)O)CC3)s2)c1` (stereo not shown) [Example 3-6], for which the IC50 in data set [2] (setting [4]) is at most 0.1 µM. With `CCCCC(=O)OC1CCC(C(C)(O)c2ncc(-c3cc(C)cc(Nc4ncc(F)c(OC)n4)c3)s2)CC1` (stereo not shown) [Example 2-73], the IC50 was 1.46 µM in data set [2] (setting [3]) and 1 to 10 µM in data set [2] (setting [4]). For `CCCCC(=O)OC1CCC(C(C)(O)c2ncc(-c3cc(C)cc(Nc4nccc(C(F)(F)F)n4)c3)s2)CC1` (stereo not shown) [Example 2-3], in that order: 1.26 µM and 1 to 10 µM.
